Source: patent US12692274B2, “Tetrahydroisoquinoline derivatives for the treatment of red blood disorders and inflammatory diseases” (Sanofi, priority 2020, dated 2026)
pEC50, pIC50: −log10 of the molar value. Several values for one entry are separate records, joined by “and”; a condition that tells them apart may be missing. Identical values can stand only once.

Legend:
[1] = molecular target: HIS-Keap1 full length / Biotin-Nrf2 (16-mer) (Homo sapiens, UniProt Q14145); experiment: biochemical
[2] = tested on: NQO1 activation in BEAS-2B cells; experiment: BEAS-2B cellular MTT assay of NQO1 activation, 0% HSA; format: cell-based
How it was run: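 BEAS-2B cells grown in BEBM with BEGM SingleQuots (no GA-1000), kept below 70% confluence, seeded on collagen plates at a density giving 95-100% confluence after 48 h. Plates seeded in medium without HSA (0% HSA condition).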

[3] = tested on: NQO1 activation in BEAS-2B cells; experiment: BEAS-2B cellular MTT assay of NQO1 activation, 0.3% HSA; format: cell-based
How it was run: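 BEAS-2B cells (<70% confluent in culture, BEBM/SingleQuots without GA-1000) seeded in collagen plates with 0.3% or 0% HSA, reaching 95-100% confluency after 48 h at 37 °C, 5% CO2; MTT read-out.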

[4] = Homo sapiens, serum free, read-out: BEAS EC50 (nM) serum free
[5] = serum free, read-out: BEAS EC50 (nM) serum free
[6] = Homo sapiens, BEAS+, read-out: BEAS+ EC50
[7] = Homo sapiens, Serum Free W, read-out: BEAS EC50 (nM) Serum Free W
[8] = BEAS+ W, read-out: BEAS+ W EC50
[9] = Homo sapiens, BEAS+ W, read-out: BEAS+ W EC50

Sequence of HIS-Keap1 full length / Biotin-Nrf2 (16-mer) (Q14145 whole entry): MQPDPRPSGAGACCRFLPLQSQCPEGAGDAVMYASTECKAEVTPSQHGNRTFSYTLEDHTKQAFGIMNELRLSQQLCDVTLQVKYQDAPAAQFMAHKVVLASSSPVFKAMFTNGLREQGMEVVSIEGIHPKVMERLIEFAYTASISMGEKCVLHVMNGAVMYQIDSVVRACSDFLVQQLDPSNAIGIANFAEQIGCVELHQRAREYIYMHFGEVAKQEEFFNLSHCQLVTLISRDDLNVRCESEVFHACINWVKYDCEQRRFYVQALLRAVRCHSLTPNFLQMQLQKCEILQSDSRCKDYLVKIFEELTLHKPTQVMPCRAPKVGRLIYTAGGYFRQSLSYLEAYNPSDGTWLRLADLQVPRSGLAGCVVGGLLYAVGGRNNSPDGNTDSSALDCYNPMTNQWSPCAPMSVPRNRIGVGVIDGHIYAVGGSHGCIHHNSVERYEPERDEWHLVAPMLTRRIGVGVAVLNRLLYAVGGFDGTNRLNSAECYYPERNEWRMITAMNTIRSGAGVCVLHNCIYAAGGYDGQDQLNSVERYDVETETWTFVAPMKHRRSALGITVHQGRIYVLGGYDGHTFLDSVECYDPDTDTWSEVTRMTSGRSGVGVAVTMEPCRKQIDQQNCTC

| Compound | pIC50 [1] | EC50 [2, 4] [nM] | EC50 [2, 5] | pEC50 ([3]; BEAS+, read-out: BEAS+ EC50) | pEC50 [3, 6] | IC50 [1] | EC50 [2, 7] [nM] | pEC50 [3, 8] | pEC50 [3, 9] | EC50 ([2]; Serum Free W, read-out: BEAS EC50 (nM) Serum Free W) [nM] |
| --- | --- | --- | --- | --- | --- | --- | --- | --- | --- | --- |
| Cc1nc2ccc1C(CC(=O)O)c1ccc3c(c1)CN(CC3)C(=O)c1ccc(cc1)CCCCCO2 (stereo not shown) [Compound 150] | 6.95 and 6.97 | 103 | 147 nM | 6.72 | 6.79 | – | – | – | – | – |
| Cc1cc2ccc1C(=O)N1CCc3ccc(cc3C1)C(CC(=O)O)c1cnc(cc1C)OCCCCO2 (stereo not shown) [Compound 151] | 8.62 and 8.57 | 216 | 170 nM | 6.92 | 6.64 | – | – | – | – | – |
| Cc1cc2ccc1C(=O)N1CCc3ccc(cc3C1)C(CC(=O)O)c1ccc(nc1)OCCCCC2 (stereo not shown) [Compound 154] | 8.48 and 8.46 | 16.6 | 13.6 nM | 7.45 | 7.42 | – | – | – | – | – |
| Cc1c2ccc3c1nnn3CCCCCCOc1ccc(cc1)C(=O)N1CCc3ccc(cc3C1)[C@H]2[C@@H](C)C(=O)O [Compound 155] | 6.13 and 6.29 | > 10000 | – | – | < 5.00 | – | – | – | – | – |
| Cc1cc2ncc1C(CC(=O)O)c1ccc3c(c1)CN(CC3)C(=O)c1ccc(cc1)CCCCCO2 (stereo not shown) [Compound 157] | 8.42 and 8.40 | 3.2 | 2.1 nM | 8.05 | 8.04 | – | – | – | – | – |
| Cc1c2ccc3c1nnn3CCCCCCOc1ccc(cc1)C(=O)N1CCc3ccc(cc3C1)[C@H]2[C@H](C)C(=O)O [Compound 159] | 8.16 and 8.14 | 113 | 122 nM | 6.32 | 6.34 | – | – | – | – | – |
| Cc1cc2ncc1C(CC(=O)O)c1ccc3c(c1)CN(CC3)C(=O)c1c(F)cc(cc1F)CCCCCO2 (stereo not shown) [Compound 161] | – | 1.4 | 0.7 nM and 1.1 nM | 8.22 and 8.12 and 8.28 | 8.11 | 2.5 nM and 2.3 nM and 1 nM (2×) | – | – | – | – |
| C[C@H](C(=O)O)[C@@H]1c2ccc(nc2)OCCCCCc2cc(F)c(c(F)c2)C(=O)N2CCc3ccc1cc3C2 [Compound 162] | 8.68 and 8.70 | 0.6 | – | – | 9.10 | – | – | – | – | – |
| Cc1cc2ccc1C(=O)N1CCc3ccc(cc3C1)C(CC(=O)O)c1cnc(cc1C)OCCCCC2 (stereo not shown) [Compound 163] | 8.62 | 2.6 | 3.3 nM | 8.03 | 8.00 | – | – | – | – | – |
| C[C@@H](C(=O)O)[C@@H]1c2ccc(nc2)OCCCCCc2cc(F)c(c(F)c2)C(=O)N2CCc3ccc1cc3C2 [Compound 164] | 7.29 and 7.23 | 16 | 20.3 nM | 7.47 | 7.49 | – | – | – | – | – |
| COc1cc2ccc1CCCCCn1nnc3c(C)c(cnc31)C(CC(=O)O)c1ccc3c(c1)CN(CC3)C2=O (stereo not shown) [Compound 165] | 8.77 and 8.80 | 11.7 | 13.3 nM | 7.68 | 7.59 | – | – | – | – | – |
| Cc1c2ccc3c1nnn3CCCCCCc1ccc(c(F)c1)C(=O)N1CCc3ccc(cc3C1)[C@H]2[C@H](C)C(=O)O [Compound 166] | 9.15 and 9.22 | – | – | – | – | – | 1.1 | 8.57 and 8.54 and 8.38 | 8.66 | – |
| Cc1c2ccc3c1nnn3CCCCCCc1ccc(c(F)c1)C(=O)N1CCc3ccc(cc3C1)[C@@H]2[C@@H](C)C(=O)O [Compound 167] | 7.91 and 7.85 | – | – | – | – | – | 34.7 | 6.88 | 6.99 | 36.6 |
| Cc1c2cnc3c1nnn3CCCCCc1cc(F)c(c(F)c1)C(=O)N1CCc3ccc(cc3C1)C2CC(=O)O (stereo not shown) [Compound 168] | 8.66 | 1.3 | 1.2 nM | 8.47 | 8.43 | – | – | – | – | – |
| Cc1cc2ncc1C(CC(=O)O)c1ccc3c(c1)CN(CC3)C(=O)c1ccc(cc1)OCCCCO2 (stereo not shown) [Compound 169] | 7.16 and 7.18 | 84.4 | 55.9 nM | 6.76 | 6.81 | – | – | – | – | – |
| Cc1cc2ccc1C(=O)N1CCc3ccc(cc3C1)C(CC(=O)O)c1cnc3c(nnn3CCCCCC2)c1C (stereo not shown) [Compound 170] | 8.20 and 8.19 | 28.3 | 20.4 nM | 7.27 | 7.30 | – | – | – | – | – |

| Compound | pIC50 [1] | EC50 [2, 4] [nM] | EC50 [2, 5] | pEC50 ([3]; BEAS+, read-out: BEAS+ EC50) | pEC50 [3, 6] | IC50 [1] | EC50 [2, 7] [nM] | pEC50 [3, 8] | pEC50 [3, 9] | EC50 ([2]; Serum Free W, read-out: BEAS EC50 (nM) Serum Free W) [nM] |
| --- | --- | --- | --- | --- | --- | --- | --- | --- | --- | --- |
| Cc1cc2ccc1C(=O)N1CCc3ccc(cc3C1)C(CC(=O)O)c1ccc3c(nnn3CCCCCC2)c1Cl (stereo not shown) [Compound 171] | 8.60 | 1 | 1.6 nM | 8.27 | 8.08 | – | – | – | – | – |
| O=C(O)C[C@H]1c2ccc(nc2)OCCCCCc2ccc(cc2)C(=O)N2CCc3ccc1cc3C2 [Compound 172] | 6.67 and 6.64 | 79.2 | 73 nM | 6.58 | 6.73 | – | – | – | – | – |
| O=C(O)C[C@@H]1c2ccc(nc2)OCCCCCc2ccc(cc2)C(=O)N2CCc3ccc1cc3C2 [Compound 173] | 7.90 and 7.91 | 3.7 | 4.3 nM | 7.88 | 7.89 | – | – | – | – | – |
| Cn1c2cc3cc(cnc31)CCCCCn1nnc3c(Cl)c(ccc31)C(CC(=O)O)c1ccc3c(c1)CN(CC3)C2=O (stereo not shown) [Compound 174] | 8.70 and 8.68 | 5.8 | 7.3 nM | 7.81 | 7.53 | – | – | – | – | – |
| Cc1c2ccc3c1nnn3CCCCCCc1ccc(cc1)C(=O)N1CCc3ccc(cc3C1)[C@@H]2[C@H](C)C(=O)O [Compound 175] | 7.98 and 7.99 | 53.3 | 53.7 nM | 6.90 | 6.98 | – | – | – | – | – |
| Cc1cc2ccc1C(=O)N1CCc3ccc(cc3C1)C(CC(=O)O)c1ccc(nc1C)OCCCCO2 (stereo not shown) [Compound 178] | 6.95 and 6.98 | 1160 | 1140 nM | 6.03 | 5.85 | – | – | – | – | – |
| Cc1c2ccc3c1nnn3CCCCCCOc1ccc(cc1)C(=O)N1CCc3ccc(cc3C1)[C@@H]2[C@H](C)C(=O)O [Compound 179] | 8.24 | 113 | 91.5 nM | 6.68 | 6.63 | – | – | – | – | – |
| Cc1nc2ccc1C(CC(=O)O)c1ccc3c(c1)CN(CC3)C(=O)c1c(F)cc(cc1F)OCCCCO2 (stereo not shown) [Compound 180] | 6.60 and 6.53 | 701 | 878 nM | 6.00 | 5.89 | – | – | – | – | – |
| Cc1cc2ccc1C(=O)N1CCc3ccc(cc3C1)C(CC(=O)O)c1cnc(nc1)OCCCCO2 (stereo not shown) [Compound 182] | 7.25 and 7.36 | – | – | – | – | – | > 1000 | – | < 5.00 | – |
| O=C(O)CC1c2cnc(nc2)OCCCCOc2ccc(cc2)C(=O)N2CCc3ccc1cc3C2 (stereo not shown) [Compound 183] | 6.19 and 6.24 | – | – | – | – | – | > 1000 | – | < 5.00 | – |
| O=C(O)CC1c2ccc(nc2)OCCCCOc2ccc(cc2C(F)(F)F)C(=O)N2CCc3ccc1cc3C2 (stereo not shown) [Compound 184] | 6.77 and 6.83 | 471 | 713 nM | 5.59 | 5.54 | – | – | – | – | – |
| O=C(O)CC1c2ccc(nc2)OCCCCOc2cnc(cn2)C(=O)N2CCc3ccc1cc3C2 (stereo not shown) [Compound 185] | < 6.00 | > 10000 | – | – | < 5.00 | – | – | – | – | – |
| Cc1nc2ncc1C(CC(=O)O)c1ccc3c(c1)CN(CC3)C(=O)c1ccc(c(Cl)c1)OCCCCO2 (stereo not shown) [Compound 186] | 6.28 and 6.54 | > 10000 | – | – | < 5.00 | – | – | – | – | – |
| O=C(O)CC1c2ccc(nc2)OCCCCCc2cc(F)c(c(F)c2)C(=O)N2CCc3ccc1cc3C2 (stereo not shown) [Compound 187] | 8.23 and 8.25 | 9.3 | 8.9 nM | 7.72 | 7.66 | – | – | – | – | – |
| COc1cc2ccc1CCCCCCn1nnc3c(C)c(ccc31)C(CC(=O)O)c1ccc3c(c1)CN(CC3)C2=O (stereo not shown) [Compound 189] | 7.64 and 7.63 | 4.4 | 6 nM | 7.80 | 7.73 | – | – | – | – | – |
